Tests used:
[1] = molecular target: T1, Leukotriene A-4 hydrolase (Homo sapiens) (UniProt P09960)
T1 sequence (whole entry): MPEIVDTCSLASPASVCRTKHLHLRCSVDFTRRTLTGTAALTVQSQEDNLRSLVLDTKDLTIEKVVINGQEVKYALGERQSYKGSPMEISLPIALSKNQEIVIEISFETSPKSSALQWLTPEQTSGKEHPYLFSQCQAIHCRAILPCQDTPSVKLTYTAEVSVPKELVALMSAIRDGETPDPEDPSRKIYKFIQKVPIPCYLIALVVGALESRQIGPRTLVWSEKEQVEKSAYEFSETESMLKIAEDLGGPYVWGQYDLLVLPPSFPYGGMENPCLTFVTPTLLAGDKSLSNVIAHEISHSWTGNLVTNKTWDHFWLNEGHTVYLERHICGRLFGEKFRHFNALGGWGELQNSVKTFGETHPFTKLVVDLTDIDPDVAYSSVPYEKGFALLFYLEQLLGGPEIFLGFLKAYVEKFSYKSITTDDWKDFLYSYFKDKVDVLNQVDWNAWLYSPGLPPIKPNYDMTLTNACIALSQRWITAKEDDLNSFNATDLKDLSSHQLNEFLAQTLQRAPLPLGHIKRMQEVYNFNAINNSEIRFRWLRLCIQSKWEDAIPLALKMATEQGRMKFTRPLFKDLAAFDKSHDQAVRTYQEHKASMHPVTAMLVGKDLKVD

[2] = molecular target: T2, Leukotriene A-4 hydrolase (Homo sapiens, UniProt P09960); assay: Competitive inhibition of human C-terminal his6-tagged/N-terminal T7 gene leader sequence-tagged LTA4H using varying levels of L-arginine-7-amino-4-Methylcoumarine as substrate preincubated for 30 mins followed by substrate addition measured for 30 mins by fluorescence assay
T2 sequence (P09960 whole entry): T1 sequence (whole entry)

[3] = molecular target: T2, Leukotriene A-4 hydrolase; assay: Binding affinity to human C-terminal his6-tagged/N-terminal T7 gene leader sequence-tagged LTA4H at 35 degC by ITC method
[4] = molecular target: T2, Leukotriene A-4 hydrolase; assay: Binding affinity to human C-terminal his6-tagged/N-terminal T7 gene leader sequence-tagged LTA4H at 25 degC by ITC method
[5] = molecular target: T2, Leukotriene A-4 hydrolase; assay: Binding affinity to human C-terminal his6-tagged/N-terminal T7 gene leader sequence-tagged LTA4H at 15 degC by ITC method
[6] = molecular target: T2, Leukotriene A-4 hydrolase; assay: Inhibition of human C-terminal his6-tagged/N-terminal T7 gene leader sequence-tagged LTA4H using L-arginine-7-amino-4-Methylcoumarine as substrate preincubated for 30 mins followed by substrate addition measured for 30 mins by fluorescence assay
[7] = molecular target: T1, Leukotriene A-4 hydrolase (Homo sapiens); assay: Binding affinity to human C-terminal His6-tagged/N-terminal T7 gene leader sequence-tagged LTA4H assessed as change in melting temperature at 0.5 mM by circular dichroism spectroscopic analysis
[8] = molecular target: T1, Leukotriene A-4 hydrolase (Homo sapiens); remark: listed apart in the source
Description: Binding affinity to human C-terminal His6-tagged/N-terminal T7 gene leader sequence-tagged LTA4H assessed as change in melting temperature at 1 mM by circular dichroism spectroscopic analysis

[9] = molecular target: T1, Leukotriene A-4 hydrolase (Homo sapiens); conditions: 40 uM

SMILES: CN(C)CCOc1ccc(Oc2ccccc2)cc1
- ΔTm [1]: 5 °C
- Ki [2]: 160 nM
- Kd [3]: 270 nM
- Kd [4]: 270 nM
- Kd [5]: 60 nM
- IC50 [6]: 60 nM
- ΔTm [7]: 7.8 °C

SMILES: CC(C)C[C@H](NC(=O)[C@@H](O)[C@H](N)Cc1ccccc1)C(=O)O
- ΔTm [1]: 5.1 °C
- ΔTm [8]: 5.2 °C

SMILES: CN(CCCOc1ccc(Cc2ccccc2)cc1)CCC(=O)O
- ΔTm [1]: 5.4 °C
- ΔTm [7]: 8.9 °C

SMILES: C[C@H](CS)C(=O)N1CCC[C@H]1C(=O)O [CAPTOPRIL]
- ΔTm [1]: 1.5 °C
- Ki [2]: 3700 nM
- Kd [3]: 8470 nM
- Kd [4]: 6250 nM
- ΔTm [8]: 0.7 °C
- Kd [5]: 6370 nM
- IC50 [6]: 3600 nM

SMILES: Nc1nc(-c2ccc(Cc3ccccc3)cc2)cs1
- ΔTm [9]: 5.3 °C
- ΔTm [1]: 5.3 °C
- Ki [2]: 360 nM
- Kd [3]: 220 nM
- Kd [4]: 310 nM
- Kd [5]: 130 nM
- IC50 [6]: 400 nM
